Assay results published in US7396910B2, “Transient receptor potential channel TRPV3 and its use” (IRM LLC, priority 2001, dated 2008).
“Also recorded” adds a separate entry of the source.

Key:
Mouse TRPV3 = target: T1, Mouse TRPV3 (Mus musculus, UniProt Q8K424, A9V); assay: Whole-cell voltage clamp of TRPV3-expressing CHO cells (heat-evoked currents); format: cell-based
T1 construct: expressed in transfected cells
T1 sequence (Q8K424 1-791 A9V): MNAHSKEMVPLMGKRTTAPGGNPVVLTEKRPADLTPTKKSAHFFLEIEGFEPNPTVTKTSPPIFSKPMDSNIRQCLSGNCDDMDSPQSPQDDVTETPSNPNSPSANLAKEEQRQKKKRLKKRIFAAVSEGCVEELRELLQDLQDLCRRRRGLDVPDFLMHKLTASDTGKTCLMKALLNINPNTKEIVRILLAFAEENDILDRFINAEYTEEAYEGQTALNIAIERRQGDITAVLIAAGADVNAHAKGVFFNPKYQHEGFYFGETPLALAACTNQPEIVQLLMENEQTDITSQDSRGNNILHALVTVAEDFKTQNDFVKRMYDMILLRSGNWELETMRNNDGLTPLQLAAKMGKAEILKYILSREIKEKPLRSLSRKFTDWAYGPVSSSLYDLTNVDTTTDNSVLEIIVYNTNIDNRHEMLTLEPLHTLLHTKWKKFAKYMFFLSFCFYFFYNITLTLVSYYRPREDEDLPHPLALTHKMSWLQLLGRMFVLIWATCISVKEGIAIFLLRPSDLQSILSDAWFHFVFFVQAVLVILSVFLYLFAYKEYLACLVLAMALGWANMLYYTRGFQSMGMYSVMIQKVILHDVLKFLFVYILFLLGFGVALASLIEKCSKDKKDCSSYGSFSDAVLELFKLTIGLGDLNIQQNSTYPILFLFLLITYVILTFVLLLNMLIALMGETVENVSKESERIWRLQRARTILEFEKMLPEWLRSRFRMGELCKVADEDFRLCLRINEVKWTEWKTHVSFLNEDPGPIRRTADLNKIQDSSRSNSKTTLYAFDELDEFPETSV
Protocol: Given the high degree of homology of TRPV3 to TRPV family members, TRPV3 is tested to determine whether it responds to stimuli known to activate other closely-related family members. Accordingly, the effects of heat upon TRPV3 activity in mediating conductance are examined using whole-cell patch-clamp analysis of transfected CHO cell lines expressing TRPV3.
Mouse TRPV3 and rat TRPV1 cDNA are subcloned into pcDNA5 (Invitrogen) and transfected into CHO-K1/FRT cells using Fugene 6 (Roche). The transfected cells are selected by growth in MEM medium containing 200 μg/mL hygromycin (Gibco BRL). Populations are frozen at early passages and these stocks are used for further studies. Stable clones that express the mRNAs are identified by Northern blot analysis as well as Southern blotting to confirm integration site. Long-term cultures are subsequently maintained at 33° C.
TRPV3 expressing CHO cells are assayed electrophysiologically using whole cell voltage clamped techniques. Currents are recorded via pCLAMP8 suite of software via an Axopatch 200A and filtered at 5 kHz. Series-resistance compensation for all experiments is 80% using 2-5 MΩ resistance, fire-polished pipettes. Unless stated, the holding potential for most experiments is −60 mV, apart from the current-voltage relationship studies (2 second ramp from −100 to +80 mV). Cells are normally bathed in a medium containing (mM): NaCl, 140; KCl, 5; Glucose; 10, HEPES, 10; CaCl2, 2; MgCl2 1; titrated to pH 7.4 with NaOH, apart from the monovalent permeability studies, when NaCl is replaced by equimolar KCl or CsCl with the omission of KCl, 5 mM. For the divalent permeability studies, the solutions either contain 1 mM Ca^2+ or Mg^2+ and (mM) NaCl, 100; Glucose, 10; Hepes, 10; sucrose, 80 or 30 mM test ion, in the above solution minus sucrose. The experiments in calcium free media have no added CaCl2 with the addition of 100 μM EGTA. Pipette solution is always (mM) CsCl, 140; CaCl2, 1; EGTA, 10; HEPES, 10; MgATP, 2; titrated to pH7.4 with CsOH. For the permeability, ratios for the monovalent cations relative to Na (PX/PNa) are calculated as follows: PX/PNa=Eshift={RT/F}log(PX/PNa[X]O/[Na]O)

mouse TRPM8 [1] = target: T2, mouse TRPM8 (Mus musculus, UniProt Q8R4D5); assay: Fura-2 calcium imaging of TRPM8-expressing CHO cells; format: cell-based
T2 construct: expressed in transfected cells
T2 sequence (Q8R4D5 whole entry): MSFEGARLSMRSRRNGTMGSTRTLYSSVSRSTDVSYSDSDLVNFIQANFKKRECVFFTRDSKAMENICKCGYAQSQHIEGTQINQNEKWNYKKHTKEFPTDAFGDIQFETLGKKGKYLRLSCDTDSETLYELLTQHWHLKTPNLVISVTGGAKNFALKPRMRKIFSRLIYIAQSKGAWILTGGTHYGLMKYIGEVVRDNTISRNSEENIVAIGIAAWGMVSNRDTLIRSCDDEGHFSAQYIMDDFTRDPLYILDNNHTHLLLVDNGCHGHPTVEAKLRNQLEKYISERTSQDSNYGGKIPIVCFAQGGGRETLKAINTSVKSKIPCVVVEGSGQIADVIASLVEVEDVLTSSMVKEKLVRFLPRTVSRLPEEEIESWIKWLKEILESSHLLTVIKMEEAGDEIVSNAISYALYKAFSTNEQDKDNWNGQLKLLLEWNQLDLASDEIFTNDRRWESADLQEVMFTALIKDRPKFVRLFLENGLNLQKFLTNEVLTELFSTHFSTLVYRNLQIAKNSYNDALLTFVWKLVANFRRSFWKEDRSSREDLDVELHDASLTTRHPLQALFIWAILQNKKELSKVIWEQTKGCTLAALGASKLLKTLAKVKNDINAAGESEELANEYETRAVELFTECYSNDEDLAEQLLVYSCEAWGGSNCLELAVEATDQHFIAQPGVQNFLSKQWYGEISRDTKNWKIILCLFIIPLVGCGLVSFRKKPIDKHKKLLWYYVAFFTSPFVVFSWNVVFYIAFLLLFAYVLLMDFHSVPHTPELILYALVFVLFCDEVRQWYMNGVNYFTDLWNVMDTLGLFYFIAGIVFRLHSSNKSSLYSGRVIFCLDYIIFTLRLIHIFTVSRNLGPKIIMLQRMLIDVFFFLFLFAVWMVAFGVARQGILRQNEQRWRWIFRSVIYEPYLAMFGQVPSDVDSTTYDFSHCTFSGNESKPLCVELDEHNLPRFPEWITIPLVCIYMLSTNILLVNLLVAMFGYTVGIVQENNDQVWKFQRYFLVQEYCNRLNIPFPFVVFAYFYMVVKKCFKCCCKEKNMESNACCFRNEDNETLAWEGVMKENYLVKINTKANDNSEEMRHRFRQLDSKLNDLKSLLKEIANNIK
Description: Given the similarity of TRPM8 protein to TRPV family members and its unique expression pattern, the effects of heat, capsaicin, cold and menthol in mediating calcium influx are examined using transfected CHO-K1/FRT cells expressing TRPM8 protein and a fluorescent calcium imaging method as described in detail below.
To generate mouse TRPM8-expressing CHO cell lines, mouse TRPM8 cDNA are subcloned in pcDNA5 (Invitrogen), transfected into CHO-K1/FRT cells using Fugene 6 (Roche). The transfected cells are selected by growth in MEM medium containing […] hygromycin (Gibco BRL). Populations are frozen at early passage numbers and these stocks are used for further studies. Stable clones that express the mRNAs are identified by Northern blot analysis as well as Southern blotting to confirm integration site (not shown).
Calcium imaging experiments are performed essentially as previously described (see Savidge et al., Neuroscience, 102:177-184 (2001)). Briefly, cells are plated on glass coverslips and loaded with Fura-2 acetoxymethyl ester ([…]) and incubated for 30-60 minutes at room temperature in […] of pluronic acid (Molecular Probes, Eugene, Oreg.) in a HEPES-buffered saline (2 mM Ca 2+). Coverslips are placed in a laminar flow perfusion chamber (Warner Instrument Corp.) and constantly perfused with HEPES-buffered saline (2 mM Ca^2+) via a local perfusion pipette through which buffer and chilled solutions are also applied. Chilled stimulations consist of a linear decrease (˜1-1.5° C. sec^−1) in perfusate temperature from 33° C. to 10° C. Perfusate temperature is controlled by a regulated Peltier device and is monitored in the cell chamber by a miniature thermocouple. Alternatively, cells are plated on 24-well tissue culture plates, loaded with Fura-2 and application of solutions is performed with a 3 cc syringe over a period of 10 seconds. Images of Fura-2 loaded cells with the excitation wavelength alternating between […] are captured with a cooled CCD camera. Following subtraction of background fluorescence, the ratio of fluorescence intensity at the two wavelengths is calculated. Ratio levels in groups of 20-40 individual cells are analyzed using MetaFluor (Universal Imaging Corporation). All graphs are averaged responses from groups of 20-30 individual cells from representative single experiments. […] Hanks balanced salt solution (HBSS), phosphate buffered saline (PBS) and all cell culture reagents are obtained from Gibco BRL. Ruthenium red, capsaicin and menthol are obtained from Sigma.

mouse TRPM8 [2] = target: T2, mouse TRPM8; assay: Whole-cell voltage clamp of TRPM8-expressing CHO cells; format: cell-based
Protocol: To investigate the membrane responses to cold and menthol, voltage clamp experiments are carried out on TRPM8 expressing cells which are prepared as described above.
Cells are plated onto poly-D-lysine coated cover-slips for recording purposes and recordings undertaken 18-24 hours later. Experiments are carried out at room temperature using whole-cell voltage clamp technique, with an Axopatch 2B amplifier, filtered at 5 kHz and pClamp suite of software (Axon Instruments). Series resistant compensation is 80% for all experiments, using 2-5 MΩ fire-polished pipettes. Recording solutions are as follows; pipette solution for all experiments is (mM) CsCl, 140; CaCl2, 1; EGTA, 10; HEPES, 10; MgATP, 2; titrated to pH 7.4 with CsOH. For menthol and cold activated currents the bath solution is (mM): NaCl, 140; KCl, 5; Glucose; 10, HEPES, 10; CaCl2, 2; MgCl2, 1; titrated to pH 7.4 with NaOH. Current-voltage relationships are used to evaluate reversal potentials with voltage ramps from −100 to +60 mV (2 second duration). For the permeability studies for the monovalent ions the NaCl in a simplified bath solution (mM): NaCl, 140; Glucose; 10, HEPES, 10; CaCl2, 2; MgCl2, 1, is substituted by either equimolar CsCl or KCl (titrated with CsOH or KOH). For calcium permeability estimates, the bath solutions contains (mM) NaCl, 100; Glucose, 10 mM; Hepes, 10 mM (titrated with NaOH) plus 1 or 30 mM CaCl2. Osmolarity of solutions are adjusted by addition of sucrose. Permeability ratios for the monovalent cations to Na (PX/PNa) are calculated as follows: PX/PNa=Eshift={RT/F}log(PX/PNa[X]O/[Na]O)
where B′=P′Ca/PNa and P′Ca=PCa/(1+e^EF/RT) and [Ca]O(1) and [Ca]O(2) refer to the two different calcium concentrations. Local perfusion of menthol is via a TC^2bip temperature controller. A Marlow temperature controller is used for the cooling ramps.

[3] = test system: Non-transfected CHO cells; assay: Fura-2 calcium imaging of non-transfected CHO cells (control cells); format: cell-based, Chinese Hamster; details: tested up to 1 mM
[4] = test system: Non-transfected CHO cells; assay: Whole-cell voltage clamp of non-transfected CHO cells (control cells); format: cell-based, Chinese Hamster; details: temperatures >23° C.
Protocol: To investigate the membrane responses to cold and menthol, voltage clamp experiments are carried out on TRPM8 expressing cells which are prepared as described above. Cells are plated onto poly-D-lysine coated cover-slips for recording purposes and recordings undertaken 18-24 hours later. […] Series resistant compensation is 80% for all experiments, using 2-5 MΩ fire-polished pipettes. Recording solutions are as follows; pipette solution for all experiments is (mM) CsCl, 140; […] EGTA, 10; HEPES, 10; […] For menthol and cold activated currents the bath solution is (mM): NaCl, 140; KCl, 5; Glucose; 10, HEPES, 10; […] Current-voltage relationships are used to evaluate reversal potentials with voltage ramps from -100 to +60 mV (2 second duration). For the permeability studies for the monovalent ions the NaCl in a simplified bath solution (mM): NaCl, 140; Glucose; 10, HEPES, 10; […] MgCl2, 1, is substituted by either equimolar CsCl or KCl (titrated with CsOH or KOH). For calcium permeability estimates, the bath solutions contains (mM) NaCl, 100; Glucose, 10 mM; Hepes, 10 mM (titrated with NaOH) plus 1 or 30 mM CaCl2. Osmolarity of solutions are adjusted by addition of sucrose. Permeability ratios for the monovalent cations to Na (PX/PNa) are calculated as follows: […]={[…])

Structure (SMILES): N.N.N.N.N.N.N.N.N.N.N.N.N.N.[Cl-].[Cl-].[Cl-].[Cl-].[Cl-].[Cl-].[O-2].[O-2].[Ru+3].[Ru+3].[Ru+4] [ruthenium red]
- relative amplitude of the heat response (test heat-evoked current relative to the preceding response) (Mouse TRPV3; 1 μM applied for 2 minutes prior to the test heat challenge, after 4-5 sensitizing heat steps, no-antagonist control 1.57±0.25): 0.34±0.03
- effect on sensitization and heat response of TRPV3 (FIG. 4D) (Mouse TRPV3; 1 μM, repeated heat steps): attenuates the sensitization and inhibits the heat response
- suppression of the temperature (cold) calcium response of TRPM8 expressing cells (mouse TRPM8 [1]; 5 μM): does not suppress the temperature response

Structure (SMILES): Oc1cc2c(cc1O)CN(C(=S)NCCc1ccc(Cl)cc1)CCC2 [capsazepine]
- amplitude of test heat-evoked current relative to the preceding response (Mouse TRPV3; 10 μM applied for 2 minutes prior to the test heat challenge, after 4-5 sensitizing heat steps, no-antagonist control 1.57±0.25): 2.31±0.36 times the amplitude of the preceding response

Structure (SMILES): COc1cc(CNC(=O)CCCC/C=C/C(C)C)ccc1O [Capsaicin, capsaicin]
- current response evoked in TRPV3-expressing cells (Mouse TRPV3; 1 μM, whole cell voltage clamp): does not evoke a response
- intracellular calcium response evoked in TRPM8 expressing cells (mouse TRPM8 [1]; 10 μM): does not evoke a response

Structure (SMILES): CC1CCC(C(C)C)C(O)C1 (stereo not shown) [menthol]
- calcium response of TRPM8 expressing cells upon lowering the temperature to 30° C. (mouse TRPM8 [1]; 30° C., 10 μM (FIG. 7E)): intracellular calcium levels increases; also recorded: marked increase in intracellular Ca^2+
- calcium response of TRPM8 expressing cells at 33° C. (mouse TRPM8 [1]; 33° C., 10 μM (FIG. 7E)): does not induce a calcium response; also recorded: does not elicit an influx of Ca^2+
- intracellular calcium (Fura-2 fluorescence) response of TRPM8 cells (mouse TRPM8 [1]; cells incubated at 25° C., 10 and 100 μM): increases significantly; also recorded: responds to menthol
- desensitization of TRPM8-expressing cells on repeated applications (mouse TRPM8 [1]; repeated applications (FIG. 7E)): do not appear to desensitize
- inward currents evoked in TRPM8-expressing CHO cells (FIG. 10A) (mouse TRPM8 [2]; 1 mM, Vh=−60 mV, 25° C.): Inward currents evoked
- concentration-response relationship of evoked currents at 22° C. versus 35° C. (mouse TRPM8 [2]; +60 mV, 0.1, 0.5, 1 and 10 mM): shifted to the left at the lower temperature
- Erev of the menthol activated current (mouse TRPM8 [2]; CsCl pipette, NaCl-based bath solution, n=12): −9.28±0.75 mV
- currents evoked in TRPM8 expressing cells (mouse TRPM8 [2]; temperatures above the threshold for cold activation (>23° C.)): evokes rapidly activating currents
- calcium response of non-transfected CHO cells [3]: completely insensitive; also recorded: no increase in [Ca^2+]i
- currents evoked in non-transfected CHO cells [4]: not in non-transfected CHO cells
